Laboratory results published in ChEMBL document CHEMBL3739371, “Small molecules enhance functional O-mannosylation of Alpha-dystroglycan” (Bioorg Med Chem, 2015).

target: T1, Dystroglycan 1 (Mus musculus) (UniProt Q62165); assay: Increase of functional O-mannosylation of alpha-dystroglycan in mouse C2C12 cells expressing LARGE at 10 uM after 48 hrs by alpha-screen assay relative to control; format: cell-based
T1 sequence (whole entry): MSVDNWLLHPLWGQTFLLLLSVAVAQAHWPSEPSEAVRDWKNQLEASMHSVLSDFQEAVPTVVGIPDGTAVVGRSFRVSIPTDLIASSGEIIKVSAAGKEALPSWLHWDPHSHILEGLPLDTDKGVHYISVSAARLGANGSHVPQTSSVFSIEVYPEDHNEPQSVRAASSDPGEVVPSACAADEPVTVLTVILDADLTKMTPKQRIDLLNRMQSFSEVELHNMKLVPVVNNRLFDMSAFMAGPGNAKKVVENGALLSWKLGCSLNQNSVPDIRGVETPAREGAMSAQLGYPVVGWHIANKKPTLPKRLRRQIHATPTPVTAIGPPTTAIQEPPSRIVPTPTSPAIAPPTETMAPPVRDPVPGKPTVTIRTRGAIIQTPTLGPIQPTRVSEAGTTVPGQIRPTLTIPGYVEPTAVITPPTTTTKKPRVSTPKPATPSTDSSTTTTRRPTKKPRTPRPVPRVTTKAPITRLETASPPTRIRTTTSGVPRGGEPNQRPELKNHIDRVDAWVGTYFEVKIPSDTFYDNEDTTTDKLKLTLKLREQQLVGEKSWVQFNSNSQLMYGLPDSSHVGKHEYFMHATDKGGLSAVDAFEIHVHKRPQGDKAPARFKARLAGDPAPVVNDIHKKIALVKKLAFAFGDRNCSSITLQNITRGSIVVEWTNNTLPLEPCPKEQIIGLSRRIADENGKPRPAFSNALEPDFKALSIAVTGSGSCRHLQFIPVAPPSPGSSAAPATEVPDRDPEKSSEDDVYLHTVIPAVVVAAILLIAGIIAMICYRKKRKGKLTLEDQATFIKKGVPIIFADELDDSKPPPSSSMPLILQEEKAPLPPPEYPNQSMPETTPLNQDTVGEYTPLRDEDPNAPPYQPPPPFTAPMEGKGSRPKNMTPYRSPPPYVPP

| Activity | Compound |
| --- | --- |
| 56% | CCC(c1nnnn1Cc1cccs1)N1CCN(c2nc3ccccc3s2)CC1 (configuration not stated) |
| 37% | c1csc(Cn2nnnc2CN2CCN(c3nc4ccccc4s3)CC2)c1 |

target: T2, Dystroglycan (Cricetulus griseus) (UniProt G3H8F4); assay: Increase of functional O-mannosylation of alpha-dystroglycan in Chinese hamster pro5 cells expressing LARGE after 48 hrs by alpha-screen assay; format: cell-based
T2 sequence (whole entry): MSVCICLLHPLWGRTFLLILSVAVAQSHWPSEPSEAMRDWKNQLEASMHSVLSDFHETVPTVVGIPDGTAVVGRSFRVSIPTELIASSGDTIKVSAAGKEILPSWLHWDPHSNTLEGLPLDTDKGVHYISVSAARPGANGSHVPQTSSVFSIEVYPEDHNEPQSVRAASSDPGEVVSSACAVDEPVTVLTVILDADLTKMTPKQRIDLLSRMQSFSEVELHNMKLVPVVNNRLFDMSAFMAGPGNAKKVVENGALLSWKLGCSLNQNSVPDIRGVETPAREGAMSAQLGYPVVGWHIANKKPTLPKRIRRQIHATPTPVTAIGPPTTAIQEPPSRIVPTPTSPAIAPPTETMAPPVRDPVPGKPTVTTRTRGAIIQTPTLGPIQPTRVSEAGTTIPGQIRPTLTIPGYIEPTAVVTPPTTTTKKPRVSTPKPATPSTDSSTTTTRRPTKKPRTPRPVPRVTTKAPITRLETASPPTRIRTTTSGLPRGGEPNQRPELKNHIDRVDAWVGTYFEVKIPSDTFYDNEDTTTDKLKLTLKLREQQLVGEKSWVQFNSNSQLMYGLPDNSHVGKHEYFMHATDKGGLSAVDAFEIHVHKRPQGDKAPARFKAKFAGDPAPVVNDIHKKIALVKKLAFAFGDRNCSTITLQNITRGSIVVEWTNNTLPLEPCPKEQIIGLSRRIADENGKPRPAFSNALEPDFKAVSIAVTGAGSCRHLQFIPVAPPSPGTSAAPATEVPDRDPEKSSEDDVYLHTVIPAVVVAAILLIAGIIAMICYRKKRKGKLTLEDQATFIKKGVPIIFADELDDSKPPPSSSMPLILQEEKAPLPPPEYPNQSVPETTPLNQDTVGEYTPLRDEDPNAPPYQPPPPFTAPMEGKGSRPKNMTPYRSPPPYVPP

| EC1.5 | Compound |
| --- | --- |
| > 64 µM | O=C(c1nnnn1Cc1cccs1)N1CCN(c2nc3ccccc3s2)CC1 |
| 25 µM | CCC(c1nnnn1Cc1cccs1)N1CCN(c2nc3cccc(C(F)(F)F)c3s2)CC1 (configuration not stated) |
| 2.6 µM | CCC(c1nnnn1Cc1cccs1)N1CCN(c2nc3cccc(F)c3s2)CC1 (configuration not stated) |
| > 64 µM | c1ccc(C(c2nnnn2Cc2cccs2)N2CCN(c3nc4ccccc4s3)CC2)cc1 (configuration not stated) |
| > 64 µM | CCC(c1nnnn1Cc1cccs1)N1CCN(c2nc3ccc(NC(=O)c4ccccc4Cl)cc3s2)CC1 (configuration not stated) |
| 4.6 µM | CCC(c1nnnn1Cc1cccs1)N1CCN(c2nc3ccccc3s2)CC1 (configuration not stated) |
| 19 µM | CCC(c1nnnn1Cc1cccs1)N1CCN(c2nc3ccc(C(=O)O)cc3s2)CC1 (configuration not stated) |
| > 64 µM | CCC(c1nnnn1Cc1cccs1)N1CCN(c2nc3ccc(-c4ccccc4)cc3s2)CC1 (configuration not stated) |
| 64 µM | CCC(c1nnnn1Cc1cccs1)N1CCN(Cc2nc3ccccc3s2)CC1 (configuration not stated) |
| > 64 µM | CC(C)n1nnnc1CN1CCN(c2nc3ccccc3s2)CC1 |
| 4.3 µM | CCC(c1nnnn1Cc1cccs1)N1CCN(c2nc3ccc(NC(=O)CCCC[C@@H]4SC[C@@H]5NC(=O)N[C@@H]54)cc3s2)CC1 (some centres not stated) |
| 17 µM | CCC(c1nnnn1Cc1cccs1)N1CCN(c2nc3ccccc3[nH]2)CC1 (configuration not stated) |
| 22 µM | CCC(c1nnnn1Cc1cccs1)N1CCN(c2nc3cccc(Br)c3s2)CC1 (configuration not stated) |
| > 64 µM | CCC(NCCNc1nc2cccc(F)c2s1)c1nnnn1Cc1cccs1 (configuration not stated) |
| 17 µM | CCC(c1nnnn1Cc1cccs1)N1CCN(c2nc3c(F)cc(F)cc3s2)CC1 (configuration not stated) |
| 7.2 µM | CC(c1nnnn1Cc1cccs1)N1CCN(c2nc3ccccc3s2)CC1 (configuration not stated) |
| 49 µM | CCC(c1ccc(-c2nc3ccccc3s2)cc1)c1nnnn1Cc1cccs1 (configuration not stated) |
| 9.5 µM | CCC(c1nnnn1Cc1ccco1)N1CCN(c2nc3ccccc3s2)CC1 (configuration not stated) |
| 6.5 µM | CCC(c1nnnn1Cc1cccs1)N1CCN(c2nc3cc(OC)c(OC)c(OC)c3s2)CC1 (configuration not stated) |
| > 64 µM | COc1ccc(Cn2nnnc2CN2CCN(c3nc4ccccc4s3)CC2)cc1 |
| 9.6 µM | CCC(c1nnnn1Cc1cccs1)N1CCC(c2nc3ccccc3s2)CC1 (configuration not stated) |
| 16 µM | CCC(c1nnnn1Cc1cccs1)N1CCN(c2nc3c(N)cccc3s2)CC1 (configuration not stated) |
| 28 µM | CCC(c1nnnn1Cc1cccs1)N1CCN(c2nc3ccc(C(=O)OC)cc3s2)CC1 (configuration not stated) |
| 48 µM | CCC(c1cnnn1Cc1cccs1)N1CCN(c2nc3ccccc3s2)CC1 (configuration not stated) |
| 14 µM | CCC(c1nnnn1Cc1cccs1)N1CCN(c2nc3cccc(C(=O)OC)c3s2)CC1 (configuration not stated) |

| EC1.5 | Compound |
| --- | --- |
| 21 µM | CCC(c1nnnn1Cc1cccs1)N1CCN(c2nc3cccc(O)c3s2)CC1 (configuration not stated) |
| 28 µM | CCC(c1nnnn1Cc1cccs1)N1CCN(C2=Nc3ccccc3C2)CC1 (configuration not stated) |
| > 64 µM | CCC(c1nnnn1Cc1cccs1)N1CCN(c2nc3cc([N+](=O)[O-])ccc3s2)CC1 (configuration not stated) |
| > 64 µM | Fc1ccc(Cn2nnnc2CN2CCN(c3nc4ccccc4s3)CC2)cc1 |
| > 64 µM | CCC(c1nnnn1-c1ccccc1)N1CCN(c2nc3ccccc3s2)CC1 (configuration not stated) |
| > 64 µM | CC(C)CC(c1nnnn1Cc1cccs1)N1CCN(c2nc3ccccc3s2)CC1 (configuration not stated) |
| 21 µM | CCC(c1nnnn1Cc1cccs1)N1CCN(c2nc3ccc(F)cc3s2)CC1 (configuration not stated) |
| 11 µM | CCC(c1nnnn1Cc1cccs1)N1CCN(c2nc3ccc(N)cc3s2)CC1 (configuration not stated) |
| 22 µM | CCC(c1nnnn1Cc1cccs1)N1CCN(c2nc3cccc(C(=O)O)c3s2)CC1 (configuration not stated) |
| > 64 µM | CCC(c1nnnn1Cc1cccs1)N1CCN(c2nc3cc(F)ccc3s2)CC1 (configuration not stated) |
| > 64 µM | c1ccc2sc(N3CCN(Cc4nnnn4C4CCCC4)CC3)nc2c1 |
| 7.1 µM | CCC(c1nnnn1Cc1cccs1)N1CCN(c2nc3ccc(OC)cc3s2)CC1 (configuration not stated) |
| 43 µM | CCC(c1nnnn1Cc1nccs1)N1CCN(c2nc3cccc(F)c3s2)CC1 (configuration not stated) |
| 64 µM | CCC(c1nnnn1CCc1cccs1)N1CCN(c2nc3cccc(F)c3s2)CC1 (configuration not stated) |
| 15 µM | CCC(c1nnnn1Cc1cccs1)N1CCN(c2nc3ccc(C)cc3s2)CC1 (configuration not stated) |
| 9.5 µM | CCC(c1nnnn1Cc1cccs1)N1CCN(c2nc3ccccc3o2)CC1 (configuration not stated) |
| 13 µM | CCC(c1nnnn1Cc1cccs1)N1CCN(c2nc3ccc(Cl)cc3s2)CC1 (configuration not stated) |
| 25 µM | CCC(c1nnnn1Cc1cccs1)N1CCN(c2nc3cc([N+](=O)[O-])cc(F)c3s2)CC1 (configuration not stated) |
| 4.9 µM | CCC(c1nnnn1Cc1cccs1)N1CCN(c2nc3c(F)cccc3s2)CC1 (configuration not stated) |
| 32 µM | CCC(c1nnnn1Cc1cccs1)N1CCN(c2nc3ccc([N+](=O)[O-])cc3s2)CC1 (configuration not stated) |
| > 64 µM | CCC(c1nnnn1Cc1cccs1)N1CCN(c2nc3ccc(NC(=O)c4ccccc4C)cc3s2)CC1 (configuration not stated) |
| > 64 µM | CCC(c1nnnn1Cc1ccccc1)N1CCN(c2nc3ccccc3s2)CC1 (configuration not stated) |
| 3.4 µM | CCC(c1nnnn1Cc1cccs1)N1CCN(c2nc3cc(N)ccc3s2)CC1 (configuration not stated) |
| 8.7 µM | c1csc(Cn2nnnc2CN2CCN(c3nc4ccccc4s3)CC2)c1 |

| Compound | EC1.5 |
| --- | --- |
| CCCC(c1nnnn1Cc1cccs1)N1CCN(c2nc3ccccc3s2)CC1 (configuration not stated) | 34 µM |
